# Data published in publication PMC8585833, “Serum concentrations of antidepressants, antipsychotics, and antiepileptics over the bariatric surgery procedure” (European Journal of Clinical Pharmacology, 2021).
# Read-outs that look alike come from different tables or passages of the source.
# Legend:
# [1] = source not stated, cited from earlier work
# [2] = Distribution coefficient (logD), octanol/water; assay type: physicochemical; conditions: two-phase system, pH 7.4; from logD
# Description: (§1) Statistical analyses were performed using SPSS, version 23.0 (IBM SPSS Statistics for Windows, Armonk, NY, USA). Participants treated with the same substance before and after surgery, with one or more trough sample concentrations available, were included in the analysis. To allow interindividual and intraindividual comparisons, serum concentrations were adjusted for defined daily dose (DDD). For example, since DDD for citalopram is 20 mg, a DDD-adjusted citalopram concentration of 100 nmol/L could represent a measured concentration of 50, 100, or 200 nmol/L, given a daily dose of 10, 20, or 40 mg, respectively. To compare pre- to post-surgery concentrations, as well as pre- to post-diet concentrations, we used Wilcoxon signed rank test for substances with samples available for six or more individuals. We used Spearman’s correlation to explore the relationship between the ratio of the post-/pre-diet concentrations and (i) the distribution coefficient for the drug in question, i.e., the logarithm of the ratio of its concentration in a lipophilic and a hydrophilic solution (logD), as well as (ii) the weight loss in kilograms for pregabalin.
# [3] = Dose-adjusted steady-state trough serum concentrations before and after low-calorie diet and bariatric surgery; assay type: in vivo, human
# Description: We designed the study as a naturalistic longitudinal, prospective case series with intra-individual comparisons of drug concentrations over time, before and up to 1 year after the surgical procedure.
# The participants contributed blood samples to the current study during routine pre-surgery visits before, and post-surgery visits about 8 weeks, 6 months, and 1 year after, the surgery. Pre-surgery sampling generally occurred twice: at an initial preoperative assessment visit, and just before surgery. Between these visits, that is, before surgery, patients were required to adhere to a low-calorie diet and show a weight reduction. The samples were stored as serum in −80 °C at a biobank, and analysed after all samples had been collected.
# Before every routine visit at which the sampling was to occur, we contacted the participants by telephone to systematically obtain information on the current dose as well as adherence to the drug treatment in question over the 2 preceding weeks. Samples were excluded from the data set if non-adherence less than four elimination half-lives prior to sampling was reported; exceptions were made for occasional missed doses of fluoxetine. Half-lives applied were those described for a drug or its metabolite in the summary of product characteristics. We also asked for and recorded concomitant drug treatment, weight, and smoking status. To be able to relate potential changes in concentration to health consequences, we asked the participants during the follow-up phone calls, using an open question, if anything had happened to their health since the last visit. To obtain trough blood concentrations, we strived to schedule the routine visits before lunchtime and the participants were instructed not to take morning tablets before the sampling.
# Specific substances were analysed concomitantly, using clinical routine methods, at accredited laboratories at the Department of Clinical Chemistry, Sahlgrenska University Hospital, Gothenburg, Sweden, or (as for gabapentin, hydroxybupropion, mianserine, pregabalin, paroxetine and topiramate) at the Department of Clinical Pharmacology, St. Olav’s Hospital, Trondheim, Norway. Analysis methods were based on liquid chromatography/tandem mass spectrometry or (for lamotrigine and valproic acid) enzyme immunoassay.
# as §1
# [4] = historical data or matched non-surgery subjects as controls; cited from earlier work
SMILES,"logD ([1]; octanol/water, pH 7.4)",Abundance in octanol relative to water [2],"Dose-adjusted drug concentration Median (IQR), Pre-diet/pre-surgery ([3]; human, in vivo)","Dose-adjusted drug concentration Median (IQR), post-diet ([3]; human, in vivo)","Dose-adjusted drug concentration Median (IQR), pre-diet ([3]; human, in vivo)","Dose-adjusted drug concentration Median (IQR), Post-surgery ([3]; human, in vivo, 379 days after surgery (median), trough)",Abundance in water relative to octanol [2] [fold],"Dose-adjusted drug concentration Median (IQR), Pre-diet/pre-surgery ([3]; Table 2A, antiepileptics, trough serum, adjusted for dose in DDDs)","Dose-adjusted drug concentration Median (IQR), post-diet ([3]; Table 2B, antiepileptics, trough serum, adjusted for dose in DDDs, after pre-surgery low-calorie diet)","Dose-adjusted drug concentration Median (IQR), pre-diet ([3]; Table 2B, antiepileptics, trough serum, adjusted for dose in DDDs, before low-calorie diet)","Change in dose-adjusted concentration over the pre-surgery low-calorie diet ([3]; after the pre-surgery diet, before surgery, median weight reduction 6 kg)","concentration at 379 days after surgery (median), trough ([3]; human, in vivo, Table 2A, antiepileptics, trough serum, adjusted for dose in DDDs, last observation carried forward, median 379 days after surgery, read-out: Dose-adjusted drug concentration Median (IQR), Post-surgery) [µM]",logD ([1]; selection limit for extremely hydrophilic or extremely lipophilic substances in literature search),Concentration change after the bariatric surgery procedure [4]
CN1CCN2c3ccccc3Cc3ccccc3C2C1 (stereo not drawn) [Mianserine],3.14,more than 1 000 fold,255 (N/A) nmol/L,201 (N/A) nmol/L,255 (N/A) nmol/L,183 (N/A) nmol/L,,,,,,,,
CC(C)C[C@H](CN)CC(=O)O [Pregabalin],−1.35,,,,,,> 20,8.5 (5.8–16) µmol/L,25 (8–33) µmol/L,9.5 (7–21) µmol/L,increased,13,,
C=CC[C@@H]1/C=C(\C)C[C@H](C)C[C@H](OC)[C@H]2O[C@@](O)(C(=O)C(=O)N3CCCC[C@H]3C(=O)O[C@H](/C(C)=C/[C@@H]3CC[C@@H](O)[C@H](OC)C3)[C@H](C)[C@@H](O)CC1=O)[C@H](C)C[C@@H]2OC [tacrolimus],,,,,,,,,,,,,> 4,appeared to decrease
